Where two headings read alike, the source gives them in different places. Blank lines part the entries; values can stand above or below the compound they belong to.
Tests used:
[1] = biological target: T1, Human Dopamine D2L receptor (Homo sapiens, UniProt P14416); test: Binding experiment for dopamine D2 receptor ([3H]Spiperone); conditions: D2L-transfected CHO cell membranes; for IC50: read-out: pIC50 D2 (converted)
T1 construct: expressed in transfected cells; host or cells: CHO cells
Experimental: (§1) The interaction of the compounds of Formula (I) with dopamine-receptors, h5HT-transporter and h5HT1A receptor was assessed in in vitro radioligand binding experiments. In general, a low concentration of a radioligand with a high binding affinity for a particular receptor or transporter is incubated with a sample of a tissue preparation enriched in a particular receptor or transporter or with a preparation of cells expressing cloned human receptors in a buffered medium. During the incubation, the radioligand binds to the receptor or transporter. When equilibrium of binding is reached, the receptor bound radioactivity is separated from the non-bound radioactivity, and the receptor- or transporter-bound activity is counted. The interaction of the test compounds with the receptor is assessed in competition binding experiments. Various concentrations of the test compound are added to the incubation mixture containing the receptor- or transporter preparation and the radioligand. The test compound in proportion to its binding affinity and its concentration inhibits binding of the radioligand.
Human Dopamine D2L receptor-transfected CHO cells were collected by scraping into ice-cold Tris-HCl buffer (50 mM, pH 7.4). The suspension was centrifuged (23 500×g, 10 min, 4° C.) and pellets stored at −70° C. until required. They were then thawed and briefly homogenised using an Ultra-Turrax T25 homogeniser prior to dilution to an appropriate protein concentration optimised for specific and non-specific binding. [^3H]Spiperone (NEN, specific activity ˜70 Ci/mmol) was diluted in Tris-HCl assay buffer containing NaCl, CaCl2, MgCl2, KCl (50, 120, 2, 1, and 5 mM respectively, adjusted to pH 7.7 with HCl) at a concentration of 2 nmol/L. Prepared radioligand (50 μl) was then incubated (30 min, 37° C.) with membrane preparations pre-diluted to an appropriate protein concentration (400 μl), and with 50 μl of either the 10% DMSO control, Butaclamol (10^−6 mol/L final concentration), or compound of interest. Membrane-bound activity was detected by filtration through a Packard Filtermate harvester onto Unifilterplates, washing with ice-cold Tris-HCl buffer (50 mM; pH8.0; 3×4 ml). Filters were allowed to dry before adding scintillation fluid and counting in a Topcount scintillation counter. % Specific bound and competition binding curves were calculated using S-Plus software (Insightful).

human 5HT transporter = biological target: T2, human 5HT transporter (Homo sapiens, UniProt P31645); test: Binding experiment for 5-HT transporter ([3H]Paroxetine)
T2 construct: host or cells: HEK cells
T2 sequence (P31645 whole entry): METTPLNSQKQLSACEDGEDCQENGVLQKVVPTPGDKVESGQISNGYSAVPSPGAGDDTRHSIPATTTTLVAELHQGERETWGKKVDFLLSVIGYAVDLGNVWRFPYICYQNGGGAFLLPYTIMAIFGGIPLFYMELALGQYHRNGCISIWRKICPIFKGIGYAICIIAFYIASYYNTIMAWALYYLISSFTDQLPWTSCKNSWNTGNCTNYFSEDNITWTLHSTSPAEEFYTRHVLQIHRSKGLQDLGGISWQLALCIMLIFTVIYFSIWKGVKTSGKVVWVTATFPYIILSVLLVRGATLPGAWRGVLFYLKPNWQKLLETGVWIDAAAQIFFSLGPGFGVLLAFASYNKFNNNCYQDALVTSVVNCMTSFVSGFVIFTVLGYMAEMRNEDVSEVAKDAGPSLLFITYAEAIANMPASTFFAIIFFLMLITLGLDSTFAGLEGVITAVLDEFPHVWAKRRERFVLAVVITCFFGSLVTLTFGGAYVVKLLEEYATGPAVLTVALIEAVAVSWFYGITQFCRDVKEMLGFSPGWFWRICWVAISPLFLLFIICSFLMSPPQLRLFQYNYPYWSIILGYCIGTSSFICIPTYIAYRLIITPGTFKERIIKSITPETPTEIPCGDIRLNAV
Experimental: as §1
Frozen human 5HT transporter-transfected HEK cells (Perkin Elmer, Brussels) were thawed and briefly homogenised using an Ultra-Turrax T25 homogeniser prior to dilution to an appropriate protein concentration optimised for specific and non-specific binding. [^3H]Paroxetine (NEN, specific activity 20 Ci/mmol) was diluted in Tris-HCl assay buffer containing NaCl and KCl (50 mM, 120 mM and 5 mM, respectively; pH 7.4) at a concentration of 5 nmol/L. Prepared radioligand (25 μl) was then incubated (60 min, 25° C.) with membrane preparations (200 μl) and with 25 μl of either 10% DMSO control, Inipramine (10^−6 mol/L final concentration), or compound of interest. Membrane-bound activity was detected by filtration through a Packard Filtermate harvester onto Unifilterplates pre-soaked in 0.1% PEI, washing with ice-cold assay buffer (3×4 ml). Filters were dried prior to addition of scintillation fluid and then counting in a Topcount scintillation counter. % Specific bound and competition binding curves were calculated using S-Plus software (Insightful).

Human 5HT1A receptor = biological target: T3, Human 5HT1A receptor (Homo sapiens, UniProt P08908); test: Binding experiment for 5-HT1A receptor ([3H]8OHDPAT)
T3 construct: expressed in transfected cells; host or cells: L929 cells (stably transfected)
T3 sequence (P08908 1-422): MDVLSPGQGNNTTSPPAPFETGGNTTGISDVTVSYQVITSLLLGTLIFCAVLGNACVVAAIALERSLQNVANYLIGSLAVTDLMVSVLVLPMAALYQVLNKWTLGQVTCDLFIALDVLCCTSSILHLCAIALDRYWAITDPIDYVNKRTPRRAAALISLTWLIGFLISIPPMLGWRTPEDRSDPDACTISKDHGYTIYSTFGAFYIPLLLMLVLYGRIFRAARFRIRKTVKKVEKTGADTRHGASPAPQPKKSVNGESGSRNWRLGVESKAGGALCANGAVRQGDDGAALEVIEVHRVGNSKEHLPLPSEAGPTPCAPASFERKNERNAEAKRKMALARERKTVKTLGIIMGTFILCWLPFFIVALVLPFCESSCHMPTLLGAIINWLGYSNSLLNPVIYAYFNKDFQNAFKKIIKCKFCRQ
Experimental: as §1
Human 5HT1A receptor-transfected L929 cells were collected by scraping into ice-cold Tris-HCl buffer (50 mM, pH 7.4). The suspension was centrifuged (23 500×g, 10 min, 4° C.) and pellets stored at −70° C. until required. They were then thawed and briefly homogenised using an Ultra-Turrax T25 homogeniser prior to dilution to an appropriate protein concentration optimised for specific and non-specific binding. [^3H]80HDPAT (NEN, specific activity 127 Ci/mmol) was diluted in Tris-HCl assay buffer containing CaCl2 (50 mM and 4 mM, respectively; pH 7.7) at a concentration of 5 nmol/L. Prepared radioligand (50 μl) was then incubated (30 min, 37° C.) with membrane preparations from L929 cells stably-transfected with the h5HT1A gene construct (400 μl) and with 50 μl of either the 10% DMSO control, spiroxatrine (10^−6 mol/L final concentration), or compound of interest. Membrane-bound activity was detected by filtration through a Packard Filtermate harvester onto Unifilterplates, washing with ice-cold Tris-HCl buffer (3×4 ml), followed by drying. Scintillation fluid was added and membranes were counted in a Topcount scintillation counter. % Specific bound and competition binding curves were calculated using S-Plus software (Insightful).

[2] = transfected HEK cell membranes, [3H]Paroxetine
[3] = transfected HEK cell membranes, [3H]Paroxetine, read-out: pIC50 5HTT (converted)
[4] = transfected L929 cell membranes, [3H]8OHDPAT
[5] = transfected L929 cell membranes, [3H]8OHDPAT, read-out: pIC50 5-HT1A (converted)

T1 sequence (P14416 whole entry): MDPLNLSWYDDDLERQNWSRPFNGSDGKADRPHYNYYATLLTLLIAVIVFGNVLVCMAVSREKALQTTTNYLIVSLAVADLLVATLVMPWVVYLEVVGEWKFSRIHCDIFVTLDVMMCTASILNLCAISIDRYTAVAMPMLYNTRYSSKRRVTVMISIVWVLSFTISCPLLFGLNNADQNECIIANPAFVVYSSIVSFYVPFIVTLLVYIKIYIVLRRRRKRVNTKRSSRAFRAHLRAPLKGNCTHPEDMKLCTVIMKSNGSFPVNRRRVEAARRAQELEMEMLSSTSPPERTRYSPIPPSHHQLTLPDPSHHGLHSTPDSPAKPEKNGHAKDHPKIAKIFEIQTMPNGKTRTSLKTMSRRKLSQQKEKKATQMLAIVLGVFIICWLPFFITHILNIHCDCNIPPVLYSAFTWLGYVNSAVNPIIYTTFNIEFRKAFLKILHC

Structure (SMILES): COc1cc2c(cc1OC)C1=NOC(CN3CCC(c4c[nH]c5ccc(Br)cc45)CC3)C1CO2 (racemic) [Compound 53]
pIC50 D2 [1]: 6.7
pIC50 5HTT (human 5HT transporter; [2]): 6.4

Structure (SMILES): COc1cc2c(cc1OC)C1=NOC(CN3CCC(c4c[nH]c5ccc(O)cc45)CC3)C1CO2 (racemic) [Compound 54]
IC50 [1]: 398 nM
IC50 (human 5HT transporter; [3]): 63.1 nM

Structure (SMILES): Fc1ccc2[nH]cc(C3=CCN(CC4ON=C5c6ccc(N7CCOCC7)cc6OCC54)CC3)c2c1 (racemic) [Compound 55]
pIC50 D2 [1]: 6.3
pIC50 5HTT (human 5HT transporter; [2]): 7.5
pIC50 5-HT1A (Human 5HT1A receptor; [4]): 7.8

Structure (SMILES): Fc1ccc2[nH]cc(C3=CCN(CC4ON=C5c6ccc(NCCN7CCCC7)cc6OCC54)CC3)c2c1 (racemic) [Compound 56]
pIC50 D2 [1]: 6.8
pIC50 5HTT (human 5HT transporter; [2]): 8.1
pIC50 5-HT1A (Human 5HT1A receptor; [4]): 8.1

Structure (SMILES): COc1cc2c(cc1OC)C1=NOC(CN3CCC(Cc4c[nH]c5ccc(F)cc45)CC3)C1CO2 (racemic) [Compound 57]
pIC50 D2 [1]: 6.3
pIC50 5HTT (human 5HT transporter; [2]): 8.3
pIC50 5-HT1A (Human 5HT1A receptor; [4]): 6.4

Structure (SMILES): COc1cc2c(cc1OC)C1=NO[C@@H](CN3CCC(n4ccc5ccccc54)CC3)[C@@H]1CO2 (racemic) [Compound 58]
IC50 [1]: 501 nM
IC50 (human 5HT transporter; [3]): 631 nM
IC50 (Human 5HT1A receptor): 25.1 nM

Structure (SMILES): Nc1ccc2c(c1)OCC1C2=NOC1CN1CC=C(c2c[nH]c3ccc(F)cc23)CC1 (racemic) [Compound 61]
pIC50 5HTT (human 5HT transporter; [2]): 6.9
pIC50 5-HT1A (Human 5HT1A receptor; [4]): 7.3

Structure (SMILES): COCCOCOc1cc2c(cc1OC)C1=NOC(CN3CC=C(c4c[nH]c5ccc(F)cc45)CC3)C1CO2 (racemic) [Compound 63]
pIC50 D2 [1]: 7.9
pIC50 5HTT (human 5HT transporter; [2]): 7.6
pIC50 5-HT1A (Human 5HT1A receptor; [4]): 6.0

Structure (SMILES): COc1cc2c(cc1OC)C1=NO[C@@H](CN3CC=C(c4cn(C)c5ccccc45)CC3)[C@@H]1CO2 (single isomer, unassigned) [Compound 34]
IC50 [1]: 2000 nM
IC50 (human 5HT transporter): 63.1 nM
IC50 (Human 5HT1A receptor): 20 nM

Structure (SMILES): COc1cc2c(cc1OC)C1=NOC(CN3CCC(c4c[nH]c5cc(F)ccc45)CC3)C1CO2 (single isomer, unassigned) [Compound 35]
pIC50 D2 [1]: 6.9
pIC50 5HTT (human 5HT transporter; [2]): 7.3
pIC50 5-HT1A (Human 5HT1A receptor; [4]): 6.4

Structure (SMILES): COc1cc2c(cc1OC)C1=NOC(CN3CCC(c4c[nH]c5cc(F)ccc45)CC3)C1CO2 (single isomer, unassigned) [Compound 36]
pIC50 D2 [1]: 7.5
pIC50 5HTT (human 5HT transporter; [2]): 6.8
pIC50 5-HT1A (Human 5HT1A receptor; [4]): 8.0

Structure (SMILES): COc1cc2c(cc1OC)C1=NOC(CN3CCC(c4c[nH]c5ccccc45)CC3)C1CO2.O=C(O)C(=O)O (single isomer, unassigned) [Compound 45]
pIC50 D2 [1]: 6.3
pIC50 5HTT (human 5HT transporter; [2]): 6.9
pIC50 5-HT1A (Human 5HT1A receptor; [4]): 7.0

Structure (SMILES): COc1cc2c(cc1OC)C1=NOC(CN3CC=C(c4c[nH]c5ccc(N)cc45)CC3)C1CO2 (centres unmarked) [Compound 33]
IC50 [1]: 1260 nM
IC50 (human 5HT transporter; [3]): 631 nM
IC50 (Human 5HT1A receptor; [5]): 12.6 nM

Structure (SMILES): CC(=O)Nc1ccc2c(c1)OCC1C2=NOC1CN1CCC(c2c[nH]c3ccc(F)cc23)CC1 (centres unmarked) [Compound 46]
IC50 [1]: 316 nM
IC50 (human 5HT transporter; [3]): 50.1 nM

IC50 [1]: 100 nM
IC50 (human 5HT transporter; [3]): 79.4 nM
IC50 (Human 5HT1A receptor; [5]): 15.8 nM
Structure (SMILES): COc1cc2c(cc1OC)C1=NOC(CN3CCC(c4coc5cc(F)ccc45)CC3)C1CO2 (centres unmarked) [Compound 59]

Reference: patent US7635696B2, “Isoxazoline-indole derivatives with an improved antipsychotic and anxiolytic activity” (Janssen Pharmaceutica N.V., priority 2004, dated 2009)
